Measurements as given in patent US9499537B2, “Antiviral pyrrolopyridine derivatives and method for preparing the same” (KOREA RESEARCH INSTITUTE OF CHEMICAL TECHNOLOGY, priority 2011, dated 2016).
Read-outs that look alike come from different tables or passages of the source.

System: MT-4 cells
Assay: Cytotoxicity test in MT-4 cells (MTT method)
Type: cell-based
Protocol: In order to look into the HIV-1 inhibition effects of the compound of the present invention, an in vitro test for HIV-1 inhibition effects was carried out as follows according to a known method (H. Tanaka et al., J. Med. Chem., 1991, 34, 349). MT-4 cells were used as host cells, and the degree of the compound of the present invention inhibiting the cytotoxicity of the virus-infected MT-4 cells was investigated.
First, MT-4 cells were diffused at a concentration of 1×10^4 cell/well to a culture medium, and HIV-1 was inoculated so that the concentration was 500 TCI50 (concentration at which 50% of the cell is infected)/well. Immediately after the inoculation, the cell dispersion was transferred in 100 μL each to a flat microtiter plate in which the sample of the compound of the present invention was placed. The sample was incubated for approximately for 4 to 5 days at […], and the virus suppression effect was determined using an MTT method. In addition, the cytotoxicity was also determined by measuring the survivability of the experimentally virus-infected cells using an MTT method. As a comparative compound, azidothymidine (AZT) and raltegravir were used.

SMILES | CC60 (μM) ** : concentration at 50% cell damage with respect to MT-4 cells (human) [µM] | CC60 (μM) ** : concentration at 50% cell damage with respect to MT-4 cells [µM]
Cc1nc2c(c(C)c(C)n2CC(=O)N(C)C)c(-c2ccc(Cl)cc2)c1[C@H](OC(C)(C)C)C(=O)O [Example 51, (S)-2-(Tert-butoxy)-2-(4-(4-chlorophenyl)-1-(2-(dimethylamino)-2-oxoethyl)-2,3,6-trimethyl-1H-pyrrolo[2,3-b]pyridin-5-yl)acetic acid] | 96.68 | 
Cc1nc2c(c(C)c(C)n2CC2(O)CC2)c(-c2ccc(Cl)cc2)c1[C@H](OC(C)(C)C)C(=O)O [Example 52] | 34.33 | 
Cc1nc2c(c(C)c(C)n2Cc2cccnc2)c(-c2ccc(Cl)cc2)c1[C@H](OC(C)(C)C)C(=O)O [Example 53, (S)-2-(Tert-butoxy)-2-(4-(4-chlorophenyl)-2,3,6-trimethyl-1-(pyridin-3-ylmethyl)-1H-pyrrolo[2,3-b]pyridin-5-yl)acetic acid] | 53.33 | 
Cc1nc2c(c(C)c(C)n2CCF)c(-c2ccc(Cl)cc2)c1[C@H](OC(C)(C)C)C(=O)O [Example 54, (S)-2-(Tert-butoxy)-2-(4-(4-chlorophenyl)-1-(2-fluoroethyl)-2,3,6-trimethyl-1H-pyrrolo[2,3-b]pyridin-5-yl)acetic acid] | 18.82 | 
Cc1nc2c(c(C)c(C)n2Cc2cncnc2)c(-c2ccc(Cl)cc2)c1[C@H](OC(C)(C)C)C(=O)O [Example 55, (S)-2-(Tert-butoxy)-2-(4-(4-chlorophenyl)-2,3,6-trimethyl-1-(pyrimidin-5-ylmethyl)-1H-pyrrolo[2,3-b]pyridin-5-yl)acetic acid] | 64.73 | 
Cc1nc2c(c(C)c(C)n2Cc2cocn2)c(-c2ccc(Cl)cc2)c1[C@H](OC(C)(C)C)C(=O)O [Example 56, (S)-2-(Tert-butoxy)-2-(4-(4-chlorophenyl)-2,3,6-trimethyl-1-(oxazol-4-ylmethyl)-1H-pyrrolo[2,3-b]pyridin-5-yl)acetic acid] | 24.56 | 
Cc1nc2c(c(C)c(C)n2CC(=O)O)c(-c2ccc(Cl)cc2)c1[C@H](OC(C)(C)C)C(=O)O [Example 57, (S)-2-(Tert-butoxy)-2-(1-carboxymethyl)-(4-(4-chlorophenyl)-2,3,6-trimethyl-1H-pyrrolo[2,3-b]pyridin-5-yl)acetic acid] | >217.9 | 
Cc1nc2c(c(C)c(C)n2CC(F)(F)F)c(-c2ccc(Cl)cc2)c1[C@H](OC(C)(C)C)C(=O)O [Example 59, (S)-2-(Tert-butoxy)-2-(4-(4-chlorophenyl)-2,3,6-trimethyl-1-(2,2,2-trifluoromethyl)-1H-pyrrolo[2,3-b]pyridin-5-yl)acetic acid] | 5.3 | 
Cc1nc2c(c(C)c(C)n2CCCC#N)c(-c2ccc(Cl)cc2)c1[C@H](OC(C)(C)C)C(=O)O [Example 60, (S)-2-(Tert-butoxy)-2-(4-(4-chlorophenyl)-1-(3-cyanopropyl)-2,3,6-trimethyl-1H-pyrrolo[2,3-b]pyridin-5-yl)acetic acid] | 18.23 | 
Cc1nc2c(c(C)c(C)n2Cc2cccc(C#N)c2)c(-c2ccc(Cl)cc2)c1[C@H](OC(C)(C)C)C(=O)O [Example 61, (S)-2-(Tert-butoxy)-2-(4-(4-chlorophenyl)-1-(3-cyanobenzyl)-2,3,6-trimethyl-1H-pyrrolo[2,3-b]pyridin-5-yl)acetic acid] | 9.43 | 
Cc1nc2c(c(C)c(C)n2Cc2ccoc2)c(-c2ccc(Cl)cc2)c1[C@H](OC(C)(C)C)C(=O)O [Example 62, (S)-2-(Tert-butoxy)-2-(4-(4-chlorophenyl)-1-(furan-3-ylmethyl)-2,3,6-trimethyl-1H-pyrrolo[2,3-b]pyridin-5-yl)acetic acid] | 15.34 | 
Cc1nc2c(c(C)c(C)n2Cc2cncs2)c(-c2ccc(Cl)cc2)c1[C@H](OC(C)(C)C)C(=O)O [Example 63, (S)-2-(Tert-butoxy)-2-(4-(4-chlorophenyl)-2,3,6-trimethyl-1-(thiazol-5-ylmethyl)-1H-pyrrolo[2,3-b]pyridin-5-yl)acetic acid] | 38.3 | 
Cc1nc2c(c(C)c(C)n2Cc2nccs2)c(-c2ccc(Cl)cc2)c1[C@H](OC(C)(C)C)C(=O)O [Example 64, (S)-2-(Tert-butoxy)-2-(4-(4-chlorophenyl)-2,3,6-trimethyl-1-(thiazol-2-ylmethyl)-1H-pyrrolo[2,3-b]pyridin-5-yl)acetic acid] | 48.57 | 
Cc1nc2c(c(C)c(C)n2CCN(C)C)c(-c2ccc(Cl)cc2)c1[C@H](OC(C)(C)C)C(=O)O [Example 65, (S)-2-(Tert-butoxy)-2-(4-(4-chlorophenyl)-1-(2-dimethylaminoethyl)-2,3,6-trimethyl-1H-pyrrolo[2,3-b]pyridin-5-yl)acetic acid] | 70.86 | 
Cc1nc2c(c(C)c(C)n2Cc2ccnc(F)c2)c(-c2ccc(Cl)cc2)c1[C@H](OC(C)(C)C)C(=O)O [Example 66, (S)-2-(Tert-butoxy)-2-(4-(4-chlorophenyl)-1-((2-fluoropyridin-4-yl)methyl)-2,3,6-trimethyl-1H-pyrrolo[2,3-b]pyridin-5-yl)acetic acid] | 14.55 | 
Cc1nc2c(c(C)c(C)n2Cc2ccc(F)nc2)c(-c2ccc(Cl)cc2)c1[C@H](OC(C)(C)C)C(=O)O [Example 67, (S)-2-(Tert-butoxy)-2-(4-(4-chlorophenyl)-1-((6-fluoropyridin-3-yl)methyl)-2,3,6-trimethyl-1H-pyrrolo[2,3-b]pyridin-5-yl)acetic acid] | 13.65 | 
Cc1nc2c(c(C)c(C)n2Cc2cccnc2F)c(-c2ccc(Cl)cc2)c1[C@H](OC(C)(C)C)C(=O)O [Example 68, (S)-2-(Tert-butoxy)-2-(4-(4-chlorophenyl)-1-((2-fluoropyridin-3-yl)methyl)-2,3,6-trimethyl-1H-pyrrolo[2,3-b]pyridin-5-yl)acetic acid] | 17.14 | 
Cc1nc2c(c(C)c(C)n2CC2CC2(F)F)c(-c2ccc(Cl)cc2)c1[C@H](OC(C)(C)C)C(=O)O (stereo partly drawn) [Example 69, (S)-2-(Tert-butoxy)-2-(4-(4-chlorophenyl)-1-((2,2-difluorocyclopropyl)methyl)-2,3,6-trimethyl-1H-pyrrolo[2,3-b]pyridin-5-yl)acetic acid] | 17.55 | 
Cc1nc2c(c(C)c(C)n2CCN2CCCC2=O)c(-c2ccc(Cl)cc2)c1[C@H](OC(C)(C)C)C(=O)O [Example 70, (S)-2-(Tert-butoxy)-2-(4-(4-chlorophenyl)-2,3,6-trimethyl-1-(2-(2-oxopyrrolidin-1-yl)ethyl)-1H-pyrrolo[2,3-b]pyridin-5-yl)acetic acid] | 49.2 | 
Cc1nc2c(c(C)c(C)n2CCN2CCCC2)c(-c2ccc(Cl)cc2)c1[C@H](OC(C)(C)C)C(=O)O [Example 71] | 73.54 | 
Cc1nc2c(c(C)c(C)n2C)c(-c2ccc3c(c2Cl)CCCO3)c1[C@H](OC(C)(C)C)C(=O)O [Example 72, (S)-2-(tert-butoxy)-2-((R)-4-(5-chlorochroman-6-yl)-1,2,3,6-tetramethyl-1H-pyrrolo[2,3-b]pyridin-5-yl)acetic acid] |  | 16.18
Cc1nc2c(c(C)c(C)n2C)c(-c2ccc3c(c2Cl)CCCO3)c1[C@H](OC(C)(C)C)C(=O)O [Example 73, (S)-2-(tert-butoxy)-2-((S)-4-(5-chlorochroman-6-yl)-1,2,3,6-tetramethyl-1H-pyrrolo[2,3-b]pyridin-5-yl)acetic acid] | 25.1 | 
Cc1nc2c(c(C)c(C)n2C)c(-c2cc(F)c3c(c2C)CCCO3)c1[C@H](OC(C)(C)C)C(=O)O [Example 74, (S)-2-(Tert-butoxy)-2-((R)-4-(8-fluoro-5-methylchroman-6-yl)-1,2,3,6-tetramethyl-1H-pyrrolo[2,3-b]pyridin-5-yl)acetic acid] |  | 23.92
Cc1nc2c(c(C)c(C)n2C)c(-c2cc(F)c3c(c2C)CCCO3)c1[C@H](OC(C)(C)C)C(=O)O [Example 75, (S)-2-(tert-butoxy)-2-((S)-4-(8-fluoro-5-methylchroman-6-yl)-1,2,3,6-tetramethyl-1H-pyrrolo[2,3-b]pyridin-5-yl)acetic acid] |  | 37.22
Cc1nc2c(c(C)c(C)n2CC2CC2)c(-c2cc(F)c3c(c2C)CCCO3)c1[C@H](OC(C)(C)C)C(=O)O [Example 76, (S)-2-(Tert-butoxy)-2-((R)-1-(cyclopropylmethyl)-4-((R)-8-fluoro-5-methylchroman-6-yl)-2,3,6-trimethyl-1H-pyrrolo[2,3-b]pyridin-5-yl)acetic acid] | 13.94 | 
